Reference: patent US20140179798A1, “N1,N4-BIS(BUTA-1,3-DIENYL)BUTANE-1,4-DIAMINE PHARMACEUTICAL COMPOSITIONS AND METHODS THEREOF” (Wisconsin Alumni Research Foundation, priority 2006, published 2014)
Entries after “also recorded” stand apart in the source; their conditions may differ.

Tests used:
[1] = test system: LNCaP human prostate cancer cells; assay: DCFH (DCF) oxidation assay of ROS, DCF/DNA fluorescence; assay type: cell-based; conditions: for DCF/DNA Fluor, units: DMEM + (F1/C4)
Description: It is well-accepted in the art that androgen, at physiological concentrations, induces ROS production in androgen dependent prostate cancer cells. A 2′,7′-dichlorodihydrofluorescein diacetate (DCF) oxidation assay was used to measure the ratio of oxidized DCF:DNA fluorescence which is an accepted measure of ROS levels in prostate cell lines. […]
Results were determined using DCF oxidation assay methods. Each data point is an average of readings from qty. 6 wells repeated twice in triplicates.
(§1) DCFH oxidation assay. The 96-well cultures or freshly re-sected animal or human tissues were assayed for estimation of ROS levels in intact cells using the dye 2′,7′ -dichlorofluorescein diacetate (DCF) (Molecular Probes, Inc., Eugene, Oreg.). Re-sected tissues or cell cultures were washed with 200 μL Kreb's Ringer buffer (116 mM NaCl, 4.2 mM KCl, 2.5 mM CaCl2, 1.6 mM NaH2PO4, 1.2 mM MgSO4, 22 mM NaHCO3, and 11 mM D-glucose), pre-warmed to 37° C., incubated at 37° C. in 100 μL Kreb's Ringer buffer containing 10 μg/mL (final concentration) DCF dye for 45 minutes. Each 96-well culture plate was scanned on a CytoFluor 2350™ plate scanner (Applied Biosystems, Foster City, Calif.) using the 485 excitation/530 emission frequencies. Each tissue sample was scanned.
DNA Assay. Fifty μL of Kreb's Ringer Buffer (40 ug/mL) containing Hoechst 33342 dye, which contains
(§2) was added to each well 45 minutes and to all tissues 60 minutes before fluorescence measurements. The DNA fluorescence was determined 360 nm excitation/460 nm emission. All DCF or Hydroethidine fluorescence were normalized to DNA fluorescence for proper quantitation of oxidative stress.

[2] = test system: SSAT mRNA in LNCaP human prostate cancer cells; assay: qRT-PCR quantitation of SSAT mRNA normalized to GAPDH mRNA; assay type: cell-based; conditions: 1 nM R1881, 96 hours
Source text: Each data point is an average of readings from qty. six identically-treated wells repeated twice in triplicates. […] It can be thus postulated that androgen-induced SSAT gene expression is a significant contributor to cellular ROS production in androgen-dependent prostate cancer cells.

[3] = test system: SSAT gene expression in LNCaP cells; assay: DNA microarray analysis of gene expression (Affymetrix Genechip Arrays); assay type: cell-based, human; conditions: 1 nM R1881, 96 hours
Description: As shown schematically in FIG. 1, unusually high polyamine levels in prostate cells and high induction of SSAT may induce large increases in ROS levels. A DNA microarray analysis of gene expression in control untreated LNCaP cells and cells treated with 1 nM androgen analog R1881 for 96 hours was performed twice using Affymetrix Genechip Arrays. In both experiments, SSAT was clearly identified as being highly over-expressed in R1881 treated with LNCaP cells as compared to untreated control cells. Among the list of genes that are over-expressed (more than 10-fold over the control), SSAT was the only enzyme connected to the ROS-generating pathway.

[4] = test system: polyamine and acetyl polyamine levels in LNCaP human prostate cells; assay: HPLC quantitation of polyamine and acetyl polyamine levels; assay type: cell-based
Source text: Each data point is an average of 2 determinations of cell pellets collected from qty. 3 independent experiments.
It can be stated that FIGS. 5A-5E support the conclusion that R1881 treatment increases SSAT mRNA levels while enhancing SSAT enzyme activity.

[5] = test system: DU-145 human prostate cancer cells; assay: DCFH (DCF) oxidation assay of ROS, DCF/DNA fluorescence; assay type: cell-based; conditions: for DCF/DNA Fluor, units: DU-145, DMEM + F(5)
Description: It is well-accepted in the art that androgen, at physiological concentrations, induces ROS production in androgen dependent prostate cancer cells. A 2′,7′-dichlorodihydrofluorescein diacetate (DCF) oxidation assay was used to measure the ratio of oxidized DCF:DNA fluorescence which is an accepted measure of ROS levels in prostate cell lines.
The LNCaP human prostate cancer cells were grown in an androgen-depleted medium of 1% FBS and 4% charcoal stripped FBS, (F1/C4) and in the presence or absence of 1 nM synthetic androgen analog R1881 with or without 15 μM antioxidant α-tocopherol (vitamin E) pretreatment.
BE-3-3-3 is known to induce SSAT enzyme activity in various cell lines including androgen-dependent LNCaP and androgen-independent DU-145 prostate cancel cells. DU-145 cells were treated with increasing concentrations of BE-3-3-3 for 72 hours. Oxidative stress was measured using 96-well plate based 2′7′-dichlorfluorescein diacetate dye (“DCF”) oxidation assay. Each data point is an average of qty. 6 identically-treated wells repeated twice in triplicates.
as §1, with “Each tissue sample was scanned.” left out
as §2

[6] = test system: prostate tissue in TRAMPxFVB animals; assay: Hydroethidine (HEt) dye oxidation in prostate sections in vivo; design: species or system mouse; conditions: 20-week-old TRAMPxFVB, 6 administrations of 25 mg/kgBW, sacrificed 2 weeks after treatment, HEt 8 mg/kgBW i.v.
Description: A method using hydroethidine (HEt) dye oxidation was standardized to observe oxidative stress in prostate tumors in vivo. HEt oxidizes to 2-hydroxy ethidium specifically by a ROS(41). The 2-hydroxy ethidium fluoresces at 488 nm excitation and 595 nm emission frequencies. The HEt dye may be safely injected into animals at least 1 hour before sacrifice. Twenty-week old TRAMPxFVB animals were injected with HEt (8 mg/kgBW) 1 hour before sacrifice. After sacrifice, prostate glands were collected, formalin-fixed and paraffin-embedded. Paraffin blocks were microtome-sectioned, and the tissues were deparaffinized, observed using fluorescence microscopy, and analyzed using digital image analysis.
The picture shown in FIGS. 7A-7D were taken at 20× magnification using an Olympus BH-2 fluorescence microscope using 480 nm excitation/600 nm emission filters coupled with a Sony DSC-V3 digital camera set at F2.8 and 30 sec. exposure.
Hydroethidine Assay. Hydroethidine dye was dissolved in DMSO (100 mg/ml) and diluted in isotonic saline to 1 mg/ml before injection. […] Microtome sections of the blocks were mounted on slides and were quantitated for fluorescence at 488 nm excitation/595 nm emission frequencies.

[7] = test system: TRAMP male mice (spontaneous prostate tumors); assay: Overall survival of TRAMP mice; assay type: in vivo, mouse
[8] = test system: TRAMPxFVB male mice (spontaneous prostate tumors); assay: Overall survival of TRAMPxFVB mice; assay type: in vivo, mouse
Source text: In the study using the TRAMPxFVB mice, qty. 8 animal were in the MDL 72,527-treated group, and qty. 8 mice were in the vehicle-treated group. Since these animals start prostate tumor development at an earlier age than do the TRAMP animals, treatment began at 8 weeks of age. Treatment included qty. […] Over 60% of the MDL 72,527-treated TRAMPxFVB mice survived at least 8 weeks after the end of the therapy, and at least 6 weeks after the death of the entire group of control vehicle-treated animals.

[9] = test system: TRAMPxFVB mice (palpable prostate tumor); assay: Time to palpable tumor development in TRAMPxFVB mice; assay type: in vivo, mouse
Source text: Signs of palpable prostate tumor development were monitored twice every week.

Androgen Receptor = assay: Western blot analysis of Androgen Receptor; assay type: in vivo, mouse; conditions: TRAMPxFVB mice
[10] = Tolerability and body weight in TRAMPxFVB mice; conditions: 25 mg/kgBW
[11] = 1 μM BE-3-3-3 + 25 μM MDL 72,527
[12] = LNCaP, 24 h pretreatment 25 μM MDL 72,527 then 1 nM R1881 96 h

Compound: C[C@]1(O)CC[C@H]2[C@@H]3CCC4=CC(=O)CCC4=C3C=C[C@@]21C [R1881, reference compound]
- oxidative stress ([1]; 0.05 nM R1881): no increase in oxidative stress
- DCF/DNA Fluor, units ([1]; 1 nM R1881): 3.34 units
- increase in SSAT gene expression vs untreated control cells (qRT-PCR) [2]: 50 fold
- SSAT over-expression over the control (DNA microarray) [3]: more than 10 fold
- N-acetyl spermidine level ([4]; LNCaP, 1 nM R1881, 96 hours): increases
- N-acetylspermine level ([4]; LNCaP, 1 nM R1881, 96 hours): increases
- putrescine level ([4]; LNCaP, 1 nM R1881, 96 hours): significantly increases
- spermidine level ([4]; LNCaP, 1 nM R1881, 96 hours): significantly increases
- spermine level ([4]; LNCaP, 1 nM R1881, 96 hours): decreases

Compound: C=C=CCNCCCCNCC=C=C [MDL 72,527]
- DCF/DNA Fluor, units [5, 11]: 0.26 units
- androgen (R1881) induced production of ROS ([1]; 25 μM MDL 72,527 pretreatment, increasing R1881 concentration 96 hours): effectively blocks androgen induced production of ROS
- DCF/DNA Fluor, units [1, 11]: 1.87 units
- N-acetyl-spermidine level [4, 12]: significant increase
- N-acetylspermine level [4, 12]: significant increase
- R1881-induced increase in putrescine level [4, 12]: almost completely blocked the induced increase
- R1881-induced increase in spermidine level [4, 12]: almost completely blocked the induced increase
- spermine level [4, 12]: without appreciably changing
- APAO activity in cells ([4]; LNCaP, MDL 72,527 at 25 μM): efficiently and effectively blocked APAO activity
- N-Ac-spermine level ([4]; LNCaP, treated with the compound (25 μM, 120 hours), without R1881): insignificantly small increase
- effect on SSAT gene expression and/or enzymatic activity ([4]; androgen-treated LNCaP cells, 25 μM MDL 72,527): no material effect
- HEt dye oxidation (fluorescence) in prostate section, oxidative stress in vivo [6]: less HEt fluorescence; also recorded: no dye oxidation was detected
- survival benefit vs vehicle-treated mice ([7]; 25 mg/kgBW i.p. bi-weekly): Over 60%
- overall survival (OS) vs vehicle ([7]; 25 mg/kgBW i.p. bi-weekly x3, from 22 weeks): significant improvement; also recorded: improvement in overall survival; also recorded: improved overall survival
- survival benefit vs vehicle-treated mice ([8]; 25 mg/kgBW i.p. bi-weekly): Over 60%
- treated mice surviving at least 8 weeks after the end of the therapy ([8]; 25 mg/kgBW i.p. bi-weekly x6): Over 60%
- overall survival (OS) vs vehicle ([8]; 25 mg/kgBW i.p. bi-weekly x6, from 8 weeks of age): significant increase in OS; also recorded: improvement in overall survival; also recorded: increased overall survival
- time to tumor development ([9]; TRAMPxFVB mice, 25 mg/kgBW every two weeks): delays time to tumor development
- treated mice with no signs of palpable tumor ([9]; TRAMPxFVB, 11 weeks after treatment discontinued (29 week old animals), 25 mg/kgBW once bi-weekly): over 40%
- Androgen Receptor level (Western blot) (Androgen Receptor): not due to down-regulation of the Androgen Receptor
- tolerability (overt signs of toxicity, abnormal behavior, body weight loss) [10]: well-tolerated

Compound: Cc1c(C)c2c(c(C)c1O)CC[C@@](C)(CCC[C@H](C)CCC[C@H](C)CCCC(C)C)O2 [Vitamin E, α-tocopherol]
- DCF/DNA Fluor, units ([1]; 1 nM R1881 + 15 μM Vitamin E): 1.80 units

Compound: CCNCCCNCCCNCCCNCC [BE-3-3-3, bisethylnorspermine]
- DCF/DNA Fluor, units ([5]; 1 μM BE-3-3-3): 0.67 units
- cellular ROS levels (DCF/DNA fluorescence, percent of control) ([5]; DU-145, increasing BE-3-3-3 concentration, 72 hours, non-cytotoxic dose <1 μM): increases oxidative stress; also recorded: increases cellular ROS levels
- DCF/DNA Fluor, units ([1]; 1 μM BE-3-3-3): 3.19 units
